How the values were obtained:
Assay in all cases: 8-day growth inhibition
Format in all cases: cell-based
Hs578T = details: Breast, 8-day assay
HEC-265 = details: Endometrial, HEC-265, 8-day assay
HEC-6 = details: Endometrial, HEC-6, 8-day assay
NCI-H929 = details: Myeloma, NCI-H929, 8-day assay
HEC-151 = details: Endometrial, HEC-151, 8-day assay
RPMI-8226 = details: Myeloma, RPMI-8226, 8-day assay
NCI-H146 = details: SCLC, NCI-H146, 8-day assay
ECC-1 = details: Endometrial, ECC-1, 8-day assay
KLE = details: Endometrial, 8-day assay

SMILES: O=c1[nH]nc2c3c(cccc13)N=C(CN1Cc3ccccc3C1)N2 [E7449]
- IC50 (Hs578T): 9600 nM
- IC50 (HEC-265): 2400 nM
- IC50 (HEC-6): 1880 nM
- IC50 (NCI-H929): 5200 nM
- IC50 (HEC-151): 1440 nM
- IC50 (RPMI-8226): 9300 nM
- IC50 (NCI-H146): 930 nM
- IC50 (ECC-1): 680 nM
- IC50 (KLE): 2590 nM
